Assay results reported in patent US11213560B2, “Method of promoting wound healing with sinetirucallol” (NATIONAL DONG HWA UNIVERSITY, priority 2015, dated 2022).

Legend:
[1] = tested on: RAW 264.7 cells; assay: MTT cell viability of RAW264.7 cells (Example 2); format: cell-based, murine; conditions: extract 5, 20, 50, 100 μg/mL or sinetirucallol 0.1, 1, 5, 10 μM for 24 h
Description: (§1) The RAW264.7 murine macrophage cell line was purchased from the Bioresource Collection and Research Center (BCRC, Taiwan). The cells were incubated at 37° C. in 5% CO2 in Dulbecco's modified Eagle's medium (DMEM; Gibco Inc., NY, USA) supplemented with 100 U/mL penicillin, 100 μg/mL sodium pyruvate and 10% fetal bovine serum (FBS; Gibco Inc.).
In order to examine the bio-compatibility of the extract of the present disclosed composition, a MTT assay (3-(4,5-dimethylthiazol-2-yl)-2,5-diphenyltetrazolium bromide (MTT, Invitrogen), a colorimetric based assay) was performed.
Briefly, 8×10^3 of cells per well were seeded in 96-well plates and were incubated in 5% CO2 at 37° C. for overnight. Cells were treated different concentrations (5, 20, 50, and 100 μg/mL) of Spiranthes sinensis extract for 24 h, after incubation 20 μL (5 mg/mL) of MTT solution was added per well and further incubated for 4 h. The media was removed, and formazan was solubilized by adding 100 μl/well of DMSO (Sigma-Aldrich) and OD was measured at 570 nm using a microplate reader (ELISA reader, Thermo Labsystems). Percentage of viable cells was estimated by comparing with untreated control cells. The average absorbance value of the control cells was taken as 100% viability.

[2] = tested on: CFA-induced inflammation mice; assay: CFA-induced paw inflammation in mice, swelling index; format: in vivo, C57BL/6 mice
[3] = tested on: p-ERK; assay: Western blot of phosphorylated ERK in LPS-induced RAW264.7 cells; format: cell-based, murine; conditions: LPS 1 μg/mL, 12 h; extract 5-100 μg/mL or SI 0.1-10 μM; dose-dependent manner
Description: as §1
(§2) The cells were also treated with 0.01% DMSO as a vehicle control. The cells were seeded into 12-well plates at a density of 6×10^5 cells/well in 24 h then incubated with 0.1% BSA with serum-free medium 3 h, treated with […]
(§3) The concentrations of proteins from whole-cell lysates were determined by Bradford assay. Equal amounts of protein were separated by SDS-PAGE and transferred onto nitrocellulose membranes. […] With the use of horseradish peroxidase-conjugated secondary anti-rabbit or anti-mouse antibody, bound antibodies were detected by enhanced chemiluminescence. The signals were monitored using Western Lightning™ Plus-ECL (Perkin Elmer Life Sciences) and the PVDF membrane was exposed to Luminescent image analyzer LAS-3000 (Fujifilm, Minato, Tokyo, Japan). Acquired data were analyzed and compared the difference among treatments.

[4] = tested on: LPS-induced RAW 264.7 cells; assay: Real-time PCR of inflammatory cytokine transcription in LPS-induced RAW 264.7 cells; format: cell-based, murine; conditions: LPS 1 μg/mL; 5 μM SI (tested 0.1, 1, 5, 10 μM)
Description: as §1
The cells were also treated with 0.01% DMSO as a vehicle control. The cells were seeded into 12-well plates at a density of 6×10^5 cells/well in 24 h then incubated with 0.1% BSA with serum-free medium 3 h, treated with different concentrations of Spiranthes sinensis extract or SI then incubated in the presence of LPS (1 μg/mL) for 4 h.
Total RNA was prepared from freshly harvested RAW 264.7 cells and was isolated using Trizol extraction. RNA samples were frozen at −80° C. until analyzed. cDNA was then made using an M-MLV RT kit (Invitrogen, Carlsbad, Calif.) according to the manufacturer's protocol. The expression of selected cytokine and related genes in mouse tissue and in RAW264.7 cells exposed to the present Spiranthes sinensis extract was determined by the SensiFAST SYBR No-ROX Kit (BIOLINE, London, UK), as described previously. PCR cycling conditions for TNF-Alpha included a 95° C. heating step for 2 min at the beginning of every run. […] In order to quantify expression represented by each of the PCR products, an internal reference by β-actin.

[5] = tested on: COX-2; assay: Western blot of COX-2 in LPS-induced RAW264.7 cells; format: cell-based, murine; conditions: LPS 1 μg/mL, 12 h; extract 5-100 μg/mL or SI 0.1-10 μM; dose-dependent manner
Description: as §1, §2, §3

[6] = tested on: LPS-induced RAW264.7 cells; assay: Nitrite quantification of NO production in LPS-induced RAW264.7 cells; format: cell-based, murine; conditions: LPS 1 μg/mL 12 h; extract 5, 20, 50, 100 μg/mL or SI 0.1, 1, 5, 10 μM; dose-dependent manner
Description: as §1, §2
NO production from activated RAW 264.7 cells was determined by measuring the amount of nitrite, a stable oxidation product of NO. An aliquot of the conditioned medium was mixed with an equal volume of 1% sulfanilamide in water and 0.1% N-1-naphthylethylenediamine dihydrochloride in 5% phosphoric acid. The absorbance was determined at 550 nm. Sodium nitrite, diluted in culture media at concentrations of 10-100 μM, was used to generate a standard curve.

[7] = tested on: NFκB; assay: Western blot of NFκB in LPS-induced RAW264.7 cells; format: cell-based, murine; conditions: LPS 1 μg/mL, 12 h; extract 5-100 μg/mL or SI 0.1-10 μM; dose-dependent manner
Description: as §1, §2, §3

## C[C@H](CC[C@@H]1CC1(C)C)[C@H]1CC[C@@]2(C)C3CCC4C(C)(C)[C@H](O)CC[C@@]4(C)C3=CC[C@]12C (stereo partly drawn) [sinetirucallol]
[1]
  Cell viability (MTT assay): not affected
[2]; 0.44 μg/kg SI compared with 4.4 μg/kg SI
  anti-inflammatory effect, low versus high dose: better effect than that of 4.4 μg/kg SI
[2]; SI group (4.4, 2.2, 0.44 μg/kg i.p.)
  foot swelling recovery compared with 0.3 mg/kg triamcinolone: less foot swelling recovery than that of 0.3 mg/kg triamcinolone
[2]; intraperitoneal injection 3 times Day 0 to Day 2, extract 0.5, 0.3, 0.06 mg/kg b.w, SI 4.4, 2.2, 0.44 μg/kg, compared with CFA group
  anti-inflammatory effect (swelling index of foot): much better than that of Spiranthes sinensis extract
[3]
  LPS-induced phosphorylation of ERK: diminished
[4]
  inhibition of inflammatory cytokine transcription: better inhibition
[5]
  LPS-induced expression of COX-2: diminished
[6]
  NO production (nitrite): inhibitory effect
[7]
  LPS-induced expression of NFκB: diminished
